Literature values in publication PMC8344021, “Discovery of Small Molecule Bak Activator for Lung Cancer Therapy” (Theranostics, 2021).

What was measured:
SCLC = test system: SCLC; design: method as in PMID 21282543, PMID 22496272; details: single-agent, SCLC patients; ref [16], [17]; cited from earlier work
[1] = test system: chronic lymphocytic leukemia (CLL); design: method as in PMID 29562156, PMID 31205643; details: venetoclax monotherapy or venetoclax/rituximab combination; ref [11], [12]; cited from earlier work

Row | SMILES | clinical efficacy (SCLC) | proportion of patients who develop venetoclax failure [1]
1 | CC1(C)CCC(c2ccc(Cl)cc2)=C(CN2CCN(c3ccc(C(=O)NS(=O)(=O)c4ccc(N[C@H](CCN5CCOCC5)CSc5ccccc5)c(S(=O)(=O)C(F)(F)F)c4)cc3)CC2)C1 [navitoclax] | limited efficacy | –
2 | CC1(C)CCC(CN2CCN(c3ccc(C(=O)NS(=O)(=O)c4ccc(NCC5CCOCC5)c([N+](=O)[O-])c4)c(Oc4cnc5[nH]ccc5c4)c3)CC2)=C(c2ccc(Cl)cc2)C1 [venetoclax] | – | 15-25%
